This is an account of results in PubChem BioAssay (NCI).

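Test compounds were applied to cells in 96-well plates for 48 hours at 5 doses. Abbreviation: GI50, concentration required for 50% inhibition of growth. The concentration for full growth arrest is given as TGI.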 Some results are limits rather than exact numbers.

Holding throughout (assay): DTP human tumour cell line panel, 48 h
Experiment [1] concerns HT29 colon.
Experiment [2] relates to OVCAR-5 ovarian.
Experiment [3] relates to NCI/ADR-RES ovarian.
Experiment [4] relates to SNB-19 CNS.
The subject of experiment [5] is SR leukemia.
For experiment [6], the system named is HOP-62 NSCLC.
Experiment [7] concerns MCF7 breast.
Experiment [8] concerns A498 renal.
For experiment [9], the system named is LOX IMVI melanoma.
The test system of experiment [10] is MDA-MB-435.

Turning to `O=C1C=C(OCC=C(Cl)Cl)C(=O)c2ccccc21`, the GI50 (usually the concentration giving 50% growth inhibition) in experiment [1] is 11.7 µM; in experiment [2] it was 8.92 µM; in experiment [3], 3.94 µM; in experiment [4] it was greater than 91.1 µM; in experiment [6], 54.9 µM; in [7], 1.61 µM. The GI50 was greater than 86.2 µM in experiment [8], 1.09 µM in experiment [9] and 1.65 µM in experiment [10]. For the same compound, the TGI (in general, the concentration giving total growth inhibition) in experiment [1] was greater than 100 µM; in experiment [2], greater than 82.1 µM; in [3], greater than 51.7 µM; in experiment [4], greater than 100 µM; in experiment [5], greater than 20.4 µM; in experiment [6], greater than 100 µM. Besides, the TGI in experiment [7] was 3.81 µM; in experiment [8] it was greater than 100 µM; in [9], 4.35 µM; in [10], 3.04 µM.

Take `CN1CCN(Cc2ccc(NC(=O)c3[nH]ncc3Nc3cc(OC4CCCC4)ncn3)cc2)CC1`: the GI50 was 2.53 µM in experiment [1]; 2.79 µM in [2]; 3.68 µM in [3]; 4.74 µM in [4]; 1.03 µM in experiment [5]; 3.7 µM in experiment [6]. Besides, the GI50 is 1.59 µM in experiment [7], 6.37 µM in experiment [8], 1.63 µM in experiment [9] and 1.84 µM in experiment [10]. The TGI in [1] stood at 8.53 µM; in [2] it was 7.12 µM; in [3] it was 15 µM; in experiment [4] it was 15.7 µM; in [5] it was 6.1 µM; in [6] it was 13.2 µM. Moreover, the TGI in experiment [7] was determined as 4.96 µM; in [8], 19.4 µM; in experiment [9], 3.83 µM; in [10], 8.32 µM.

As to `O=C(O)CSc1nnc2c3ccccc3c3ccccc3c2n1`, the TGI in experiment [1], in experiment [2], in experiment [3], in experiment [4], in experiment [5] and in [6] was greater than 100 µM each time. Further, the concentration for total growth inhibition (TGI) in experiment [7], in [8], in experiment [9] and in [10] was greater than 100 µM throughout.

Regarding `CCCNC(=O)Nc1ccc2c(c1)Cc1cc(N(CCCl)CCCl)ccc1-2`, the TGI in experiment [1] was 17.8 µM; in experiment [2] it was greater than 100 µM; in experiment [3] it was greater than 100 µM; in experiment [4] it was 94.8 µM; in [5], greater than 100 µM; in experiment [6], greater than 100 µM. Besides, the TGI in experiment [7] was 77.5 µM; in experiment [8] it was 33.4 µM; in experiment [9] it was greater than 100 µM; in experiment [10], 68.9 µM.

For `COc1cc[nH]c1/C=C1\C(=O)Nc2ccc([N+](=O)[O-])c(N3CC[C@@H](O)C3)c21`, the GI50 in experiment [1] was 0.209 µM; in [2], 0.258 µM; in experiment [3], 0.53 µM; in experiment [4], 0.495 µM; in experiment [5], 0.0536 µM; in experiment [6] it was 0.181 µM. Besides, the 50% growth inhibitory concentration (GI50) is 0.121 µM in [7], 0.182 µM in experiment [8], 0.0923 µM in experiment [9] and 0.271 µM in [10]. Moreover, the TGI in experiment [1] worked out at 1.56 µM; in [2], 3.97 µM; in [3] it was 5.83 µM; in experiment [4], 5.68 µM; in experiment [5], 0.185 µM; in experiment [6], 1.88 µM. The TGI in [7] was found to be 2.85 µM; in experiment [8] it was 0.815 µM; in experiment [9], 1.41 µM; in experiment [10] it was 0.907 µM.

`CCN1C(=O)N(CC)C2C1NN=c1s/c(=C\c3cnc(C)n3C)c(=O)n12` (stereo unspecified): the GI50 in experiment [2] is 3.68 µM; in experiment [3], 10.3 µM; in experiment [4], 3.94 µM; in experiment [5] it was 0.346 µM; in experiment [6], 2.59 µM; in experiment [7], 0.676 µM. Further, the GI50 in [8] was 0.946 µM; in [9], 4.43 µM; in experiment [10] it was 0.321 µM. Also, the TGI in experiment [2] is greater than 100 µM; in experiment [3], greater than 100 µM; in experiment [4], greater than 100 µM; in [5], 19.1 µM; in experiment [6], greater than 100 µM; in [7] it was greater than 100 µM. The total growth inhibition concentration (TGI) in experiment [8] was 5.43 µM; in experiment [9], greater than 100 µM; in experiment [10], 1.36 µM.

For `O=C(CN1CCN(c2ccccn2)CC1)Nc1ccc(Cl)cc1C(=O)c1ccccc1Cl`, the GI50 in experiment [1] was 8.92 µM; in experiment [2] it was greater than 100 µM; in [3], 86.8 µM; in experiment [4], 79.6 µM; in experiment [5] it was 6.63 µM; in [7] it was 9.26 µM. Moreover, the GI50 in experiment [8] was 24.5 µM; in experiment [9], 41.6 µM; in experiment [10] it was 28.4 µM. Also, the TGI in experiment [1], in experiment [2], in experiment [3], in [4], in experiment [5] and in experiment [7] was greater than 100 µM in each case. In addition, the TGI in experiment [8], in [9] and in experiment [10] was greater than 100 µM in each case.

For the compound `O=C(Nc1ccc(N2CCNCC2)cn1)c1[nH]ncc1Nc1ncnc2sc3c(c12)CCC3`, the GI50 in [3] is 4.75 µM; in [5] it was 0.246 µM; in experiment [6], 1.83 µM; in [7] it was 1.68 µM; in experiment [8] it was 5.06 µM; in [10] it was 1.13 µM. For the same compound, the TGI in experiment [3] is greater than 100 µM; in [5], 0.872 µM; in experiment [6] it was 4.81 µM; in [7], 4.2 µM; in experiment [8], 24.6 µM; in experiment [10] it was 2.67 µM.

Turning to `CC1CC2(C)CC(=O)C1C1C(=O)N(CCN3CCOCC3)C(=O)C12` (stereo unspecified), the GI50 in [1], in [2], in experiment [3], in [4], in experiment [5] and in [6] was greater than 100 µM throughout. Further, the GI50 in [8], in experiment [9] and in experiment [10] was greater than 100 µM in each case. The TGI in [1], in experiment [2], in experiment [3], in experiment [4], in experiment [5] and in experiment [6] was greater than 100 µM each time. Besides, the TGI in [8], in [9] and in experiment [10] was greater than 100 µM each time.

With `COc1ccc2c(c1)O/C(=C\c1ccc([N+](=O)[O-])s1)C2=O`, the GI50 in experiment [3] is 4.52 µM; in experiment [4] it was greater than 22 µM; in experiment [5], 0.12 µM; in experiment [6], 8.11 µM; in experiment [7], 0.621 µM; in experiment [8] it was greater than 27.4 µM. Besides, the GI50 in experiment [10] was greater than 100 µM. The TGI in experiment [3] was greater than 100 µM; in [4] it was greater than 100 µM; in experiment [5], 0.759 µM; in experiment [6], greater than 31.6 µM; in [7], greater than 100 µM; in experiment [8], greater than 75.7 µM. Also, the TGI in experiment [10] was greater than 100 µM.

With `Nc1cc(N)c2nc(-c3ccccc3)c(Oc3ccc(Cl)c(Cl)c3)nc2c1`, the GI50 in [2] was 25.4 µM; in experiment [3] it was 11.8 µM; in experiment [4] it was 20.9 µM; in experiment [5] it was 3.36 µM; in experiment [6], 16.9 µM; in experiment [7], 14.2 µM. In addition, the GI50 was 0.442 µM in experiment [8], 16.1 µM in experiment [9] and 5.03 µM in experiment [10]. The TGI in experiment [2] worked out at 58.3 µM; in [3] it was 36.1 µM; in [4] it was 52.5 µM; in [5], 24.2 µM; in [6], 37.9 µM; in experiment [7], 70.6 µM. Further, the TGI was found to be 12.3 µM in [8], 34 µM in [9] and 21.1 µM in [10].

For the compound `CCCCCCCCCCCCCCCC(N)c1ccccc1` (stereo unspecified), the GI50 in [1] was 1.66 µM; in experiment [2], 1.49 µM; in experiment [3], 1.85 µM; in experiment [5] it was 0.558 µM; in experiment [6], 1.23 µM; in [7], 1.62 µM. Besides, the GI50 in [9] is 1.52 µM; in [10], 1.61 µM. The TGI in experiment [1] worked out at 3.32 µM; in experiment [2], 3.1 µM; in experiment [3] it was 3.66 µM; in experiment [5], 2.43 µM; in experiment [6], 2.62 µM; in experiment [7], 3.18 µM. The TGI was found to be 3 µM in [9] and 3.04 µM in experiment [10].

In the case of `O=C1CC2OCC=C3CN4CCC56c7ccccc7N1C5C2C3CC46` (stereo unspecified) (tested in a mixture with another compound), the GI50 in experiment [1], in experiment [2], in [3], in experiment [4], in experiment [6] and in experiment [7] was greater than 50 µg/mL in each case. In addition, the GI50 in [8], in [9] and in experiment [10] was greater than 50 µg/mL throughout. In addition, the TGI in [1], in experiment [2], in experiment [3], in [4], in experiment [6] and in experiment [7] was greater than 50 µg/mL throughout. In addition, the total growth inhibition concentration (TGI) in experiment [8], in [9] and in experiment [10] was greater than 50 µg/mL each time.
